For assay [1], the system named is spontaneously hypertensive rat (SHR). As to the kind of experiment: Plasma uric acid (uricemia) in potassium oxonate-induced hyperuricemia in spontaneously hypertensive rats. Format: in vivo. The settings on record: for Uricemia: SHR + K oxonate 250 mg/kg IP, 4 hours after last dose; for Δ Uricemia: SHR + K oxonate, difference vs Control + K oxonate; for Effect on hyperuricemia values (in words): oral, one week before potassium oxonate, 1-3-10 mg/kg, SHR. The method, then:
(§1) Pharmacological activity of febuxostat and olmesartan medoxomil, alone or in association, was assessed in an experimental model of hyperuricemia in spontaneously hypertensive rat (SHR, Harlan Laboratories, Udine, Italy). Systolic pressure (SBP) was measured in non-anesthesized animals by means of a tail cuff sphygmomanometer (Blood Pressure Analysis System BP-2000, Visitech Systems, USA) equipped with an automatic system for data acquisition and processing.
(§2) All animals were preconditioned daily for 2 weeks to accustom them to instrumental measuring of the pressure before starting the test. Hyperuricemia was induced with administration of potassium oxonate (250 mg/kg IP, 2 hours after the last dose of drugs and 2 hours before the test), an uricase inhibitor capable of inducing experimental hyperuricemia. Plasma levels of uric acid were measured with a standard colorimetric enzymatic method. Febuxostat and/or olmesartan were administered orally once per day for 7 days, by gavage, at the doses of 1-3-10 mg/kg.
(§3) Parameters measured in conscious rats were systolic pressure (SBP) and plasma uric acid/urate levels (uricemia), as well as basal values, both after one week of treatment and 2 hours after administration of potassium oxonate. Blood was collected from a tail vein.
(§4) Uricemia and systolic pressure values were recorded 4 hours after the last dose of drugs or vehicle. Potassium oxonate (250 mg/kg IP) was administered 2 ore before the test. Each value is the average of 7-13 tests.

Assay [2] has the same test system. As to the kind of experiment: Systolic pressure (SBP) by tail cuff sphygmomanometer in conscious spontaneously hypertensive rats. The class given is in vivo. The conditions noted are these: for SBP / Δ SBP: SHR + K oxonate; for SBP: 4 hours after last dose; for Δ SBP: difference vs Control + K oxonate; for Effect on systolic pressure (in words): 1-3-10 mg/kg per os, daily for 1 week, SHR. As to the method:
as §1, §2, §3, §4

In assay [3] the test system is hyperuricemia. The settings on record: clinical studies; cited from earlier work.
For assay [4], the system named is 30 hypertensive subjects. The settings on record: monotherapy, only teenagers; cited from earlier work.
The mark [5] stands for this setting: 1 mg/kg day per os for one week.
[6] abbreviates: 3 mg/kg day per os for one week.
The mark [7] stands for this setting: 10 mg/kg day per os for one week.

Regarding `Cc1nc(-c2ccc(OCC(C)C)c(C#N)c2)sc1C(=O)O` [Febuxostat, febuxostat], the Uricemia in assay [1] (setting [5]) turned out to be 1.02 ± 0.07 mg/dL; in assay [1] (setting [6]) it was 0.78 ± 0.06 mg/dL; in assay [1] (setting [7]) it was 0.49 ± 0.05 mg/dL. The “Δ Uricemia” value is -0.15 mg/dL in assay [1] (setting [5]), -0.39 mg/dL in assay [1] (setting [6]) and -0.68 mg/dL in assay [1] (setting [7]). For the same compound, the “Effect on hyperuricemia values (in words)” value in assay [1] was “reduced in a significant and dose-dependent manner the hyperuricemia values”. In addition, the figures for the SBP in assay [2] (setting [5]), in assay [2] (setting [6]) and in assay [2] (setting [7]) were 234 ± 19 mmHg, 229 ± 24 mmHg and 228 ± 21 mmHg, respectively. Further, the “Δ SBP” value in assay [2] (setting [5]) is −5 mmHg; in assay [2] (setting [6]), −10 mmHg; in assay [2] (setting [7]), −11 mmHg. The “Effect on systolic pressure (in words)” value in assay [2] is given as “slight inhibitory effect on systolic pressure”. Besides, the “Reduction of hyperuricemia compared with allopurinol (in words)” value in assay [3] was “reduce hyperuricemia more effectively than allopurinol”.

As to `Oc1ncnc2[nH]ncc12` [allopurinol], the “Anti-hypertensive effect (in words)” value in assay [4] is on record as “has shown an anti-hypertensive effect”.

`CCCc1nc(C(C)(C)O)c(C(=O)OCc2oc(=O)oc2C)n1Cc1ccc(-c2ccccc2-c2nnn[nH]2)cc1` [Olmesartan, olmesartan medoxomil]: the Uricemia in assay [1] (setting [5]) amounted to 1.16 ± 0.11 mg/dL; in assay [1] (setting [6]), 1.10 ± 0.12 mg/dL; in assay [1] (setting [7]) it was 1.08 ± 0.07 mg/dL. For the same compound, the “Δ Uricemia” value in assay [1] (setting [5]) was -0.01 mg/dL; in assay [1] (setting [6]), -0.07 mg/dL; in assay [1] (setting [7]), -0.09 mg/dL. In addition, the “Effect on hyperuricemia values (in words)” value in assay [1] was “weakly active”. The SBP in assay [2] (setting [5]) was 217 ± 14 mmHg; in assay [2] (setting [6]) it was 202 ± 10 mmHg; in assay [2] (setting [7]) it was 180 ± 11 mmHg. In addition, the “Δ SBP” value in assay [2] (setting [5]) was −22 mmHg; in assay [2] (setting [6]) it was −37 mmHg; in assay [2] (setting [7]), −59 mmHg. Also, the “Effect on systolic pressure (in words)” value in assay [2] is listed as “reduced systolic pressure in a dose-dependent manner”.
